From PubChem BioAssay (NCI)
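Assay format: 96-well plates, 48-hour exposure. Abbreviation: GI50, concentration required for 50% inhibition of growth. TGI denotes the concentration required for complete inhibition of growth.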

Experiments:
Assay in all cases: NCI anticancer screen, dose series, 48 h
A498 renal = test system: A498 renal
CAKI-1 renal = test system: CAKI-1 renal
COLO 205 colon = test system: COLO 205 colon
DU-145 prostate = test system: DU-145 prostate
EKVX NSCLC = test system: EKVX NSCLC
HCC-2998 colon = test system: HCC-2998 colon
HS 578T breast = test system: HS 578T breast
HT29 colon = test system: HT29 colon
IGROV1 ovarian = test system: IGROV1 ovarian
K-562 leukemia = test system: K-562 leukemia
KM12 colon = test system: KM12 colon
MALME-3M melanoma = test system: MALME-3M melanoma
MDA-MB-435 = test system: MDA-MB-435
NCI-H226 lung = test system: NCI-H226 lung
NCI-H522 lung = test system: NCI-H522 lung
NCI/ADR-RES ovarian = test system: NCI/ADR-RES ovarian
OVCAR-5 ovarian = test system: OVCAR-5 ovarian
RXF 393 renal = test system: RXF 393 renal
SF-295 CNS = test system: SF-295 CNS
SF-539 CNS = test system: SF-539 CNS
SK-MEL-2 melanoma = test system: SK-MEL-2 melanoma
SK-MEL-28 melanoma = test system: SK-MEL-28 melanoma
SK-MEL-5 melanoma = test system: SK-MEL-5 melanoma
SK-OV-3 ovarian = test system: SK-OV-3 ovarian
TK-10 renal = test system: TK-10 renal
UACC-257 melanoma = test system: UACC-257 melanoma
UO-31 renal = test system: UO-31 renal
786-0 renal = test system: 786-0 renal
A549 NSCLC = test system: A549 NSCLC
ACHN renal = test system: ACHN renal
BT-549 breast = test system: BT-549 breast
CCRF-CEM leukemia = test system: CCRF-CEM leukemia
HCT-116 colon = test system: HCT-116 colon
HCT-15 colon = test system: HCT-15 colon
HL-60(TB) leukemia = test system: HL-60(TB) leukemia
HOP-62 NSCLC = test system: HOP-62 NSCLC
HOP-92 NSCLC = test system: HOP-92 NSCLC
LOX IMVI melanoma = test system: LOX IMVI melanoma
M14 melanoma = test system: M14 melanoma
MDA-MB-231 breast = test system: MDA-MB-231 breast
NCI-H23 lung = test system: NCI-H23 lung
OVCAR-3 ovarian = test system: OVCAR-3 ovarian
OVCAR-4 ovarian = test system: OVCAR-4 ovarian
OVCAR-8 ovarian = test system: OVCAR-8 ovarian
PC-3 prostate = test system: PC-3 prostate
RPMI-8226 leukemia = test system: RPMI-8226 leukemia
SN12C renal = test system: SN12C renal
SNB-75 CNS = test system: SNB-75 CNS
SR leukemia = test system: SR leukemia
SW-620 colon = test system: SW-620 colon
T-47D breast = test system: T-47D breast
U251 CNS = test system: U251 CNS
UACC-62 melanoma = test system: UACC-62 melanoma

COc1cc(Cn2c3c(c4c(C(=O)NCCN(C)C)c(O)ccc42)C(=O)c2ccccc2C3=O)cc(OC)c1
TGI (A498 renal): 3.45 µM
TGI (CAKI-1 renal): 3.26 µM
TGI (COLO 205 colon): 3.34 µM
TGI (DU-145 prostate): 3.2 µM
TGI (EKVX NSCLC): 3.32 µM
TGI (HCC-2998 colon): 2.35 µM
TGI (HS 578T breast): 4.55 µM
TGI (HT29 colon): 3.45 µM
TGI (IGROV1 ovarian): 3.22 µM
TGI (K-562 leukemia): > 100 µM
TGI (KM12 colon): 3.2 µM
TGI (MALME-3M melanoma): 3.05 µM
TGI (MDA-MB-435): 3.4 µM
TGI (NCI-H226 lung): 48.3 µM
TGI (NCI-H522 lung): 3.21 µM
TGI (NCI/ADR-RES ovarian): 5.21 µM
TGI (OVCAR-5 ovarian): 3.2 µM
TGI (RXF 393 renal): 5.02 µM
TGI (SF-295 CNS): 3.45 µM
TGI (SF-539 CNS): 3.4 µM
TGI (SK-MEL-2 melanoma): 3.36 µM
TGI (SK-MEL-28 melanoma): 3.43 µM
TGI (SK-MEL-5 melanoma): 3.27 µM
TGI (SK-OV-3 ovarian): 3.88 µM
TGI (TK-10 renal): 3.14 µM
TGI (UACC-257 melanoma): 3.97 µM
TGI (UO-31 renal): 3.23 µM

CO/N=C(\C)c1ccc(Nc2cc(-c3ccccc3)nc3c(O)cccc23)cc1
GI50 (786-0 renal): 16.3 µM
TGI (786-0 renal): 35.2 µM
GI50 (A498 renal): 21.4 µM
TGI (A498 renal): 41.6 µM
GI50 (A549 NSCLC): 12.8 µM
TGI (A549 NSCLC): 28.9 µM
GI50 (ACHN renal): 17.8 µM
TGI (ACHN renal): 34 µM
GI50 (BT-549 breast): 15.5 µM
TGI (BT-549 breast): 32.7 µM
GI50 (CAKI-1 renal): 19.4 µM
TGI (CAKI-1 renal): 35.5 µM
GI50 (CCRF-CEM leukemia): 6.64 µM
TGI (CCRF-CEM leukemia): 22.6 µM
GI50 (COLO 205 colon): 17.2 µM
TGI (COLO 205 colon): 34.5 µM
GI50 (DU-145 prostate): 14.1 µM
TGI (DU-145 prostate): 32 µM
GI50 (EKVX NSCLC): 15.9 µM
TGI (EKVX NSCLC): 41.7 µM
GI50 (HCC-2998 colon): 22.1 µM
TGI (HCC-2998 colon): 37.1 µM
GI50 (HCT-116 colon): 22.2 µM
TGI (HCT-116 colon): 52.7 µM
GI50 (HCT-15 colon): 16.2 µM
TGI (HCT-15 colon): 32.5 µM
GI50 (HL-60(TB) leukemia): 48.4 µM
TGI (HL-60(TB) leukemia): > 100 µM
GI50 (HOP-62 NSCLC): 17.6 µM
TGI (HOP-62 NSCLC): 34.8 µM
GI50 (HOP-92 NSCLC): 17.5 µM
TGI (HOP-92 NSCLC): 33.7 µM
GI50 (HS 578T breast): 18.2 µM
TGI (HS 578T breast): 46.1 µM
GI50 (HT29 colon): 21.9 µM
TGI (HT29 colon): 49.5 µM
GI50 (IGROV1 ovarian): 13.5 µM
TGI (IGROV1 ovarian): 45.2 µM
GI50 (K-562 leukemia): 11.6 µM
TGI (K-562 leukemia): 60.4 µM
GI50 (LOX IMVI melanoma): 14.3 µM
TGI (LOX IMVI melanoma): 27.9 µM
GI50 (M14 melanoma): 14.6 µM
TGI (M14 melanoma): 29.6 µM
GI50 (MDA-MB-231 breast): 15 µM
TGI (MDA-MB-231 breast): 30.6 µM
GI50 (MDA-MB-435): 15.5 µM
TGI (MDA-MB-435): 30.9 µM
GI50 (NCI-H226 lung): 22.4 µM
TGI (NCI-H226 lung): 78.4 µM
GI50 (NCI-H23 lung): 14.9 µM
TGI (NCI-H23 lung): 30.6 µM
GI50 (NCI-H522 lung): 20.6 µM
TGI (NCI-H522 lung): 62.1 µM
GI50 (NCI/ADR-RES ovarian): 14.5 µM
TGI (NCI/ADR-RES ovarian): 30.8 µM
GI50 (OVCAR-3 ovarian): 16.4 µM
TGI (OVCAR-3 ovarian): 32.4 µM
GI50 (OVCAR-4 ovarian): 19.9 µM
TGI (OVCAR-4 ovarian): 50.7 µM
GI50 (OVCAR-5 ovarian): 18.7 µM
TGI (OVCAR-5 ovarian): 33.4 µM
GI50 (OVCAR-8 ovarian): 13.6 µM
TGI (OVCAR-8 ovarian): 33.9 µM
GI50 (PC-3 prostate): 13.7 µM
TGI (PC-3 prostate): 35 µM
GI50 (RPMI-8226 leukemia): 15.8 µM
TGI (RPMI-8226 leukemia): 37 µM
GI50 (RXF 393 renal): 14.2 µM
TGI (RXF 393 renal): 30 µM
GI50 (SF-295 CNS): 12.7 µM
TGI (SF-295 CNS): 27.9 µM
GI50 (SF-539 CNS): 17.6 µM
TGI (SF-539 CNS): 32.1 µM
GI50 (SK-MEL-2 melanoma): 28 µM
TGI (SK-MEL-2 melanoma): > 100 µM
GI50 (SK-MEL-28 melanoma): 25.5 µM
TGI (SK-MEL-28 melanoma): 84.8 µM
GI50 (SK-MEL-5 melanoma): 23.9 µM
TGI (SK-MEL-5 melanoma): 91.4 µM
GI50 (SK-OV-3 ovarian): 18.8 µM
TGI (SK-OV-3 ovarian): 35.5 µM
GI50 (SN12C renal): 16 µM
TGI (SN12C renal): 30.6 µM
GI50 (SNB-75 CNS): 22.1 µM
TGI (SNB-75 CNS): 46.1 µM
GI50 (SR leukemia): 5.51 µM
TGI (SR leukemia): 34.7 µM
GI50 (SW-620 colon): 13.6 µM
TGI (SW-620 colon): 40 µM
GI50 (T-47D breast): 9.07 µM
TGI (T-47D breast): 27.8 µM
GI50 (U251 CNS): 13.3 µM
TGI (U251 CNS): 27.2 µM
GI50 (UACC-257 melanoma): 15.9 µM
TGI (UACC-257 melanoma): 32.3 µM
GI50 (UACC-62 melanoma): 14.6 µM
TGI (UACC-62 melanoma): 28.8 µM
GI50 (UO-31 renal): 19.6 µM
TGI (UO-31 renal): 42.5 µM
